Measurements reported in patent US6348461B1, “6,7-asymmetrically disubstituted quinoxalinecarboxylic acid derivatives, addition salts thereof, and processes for the preparation of both” (Kyorin Pharmaceutical Co., Ltd., priority 1997, dated 2002).
Structures can show the parent of a compound that is named as a salt.

**Q.** For `O=C(O)c1nc2cc(Oc3cccc([N+](=O)[O-])c3)c([N+](=O)[O-])cc2[nH]c1=O`, which melting point is on record?
**A.** Its melting point is 198 to 200 °C (dec.).

**Q.** For `O=C(O)c1nc2cc(CN3CCOCC3)c([N+](=O)[O-])cc2[nH]c1=O` (as salt: hydrochloride) [Example 160, 3,4-Dihydro-7-(morpholine-1-yl)methyl-6-nitro-3-oxoquinoxaline-2-carboxylic Acid Hydrochloride], which melting point is on record?
**A.** Its melting point is 209 to 211 °C (dec.).

**Q.** With `O=C(NCc1cn(-c2cc3nc(C(=O)O)c(=O)[nH]c3cc2[N+](=O)[O-])cn1)Nc1ccc(C(=O)O)cc1` (as salt: salt) [Example 119, 7-(4-(((4-Carboxyphenyl)aminocarbonylamino)methyl)imidazolyl)-3,4-dihydro-6-nitro-3-oxoquinoxaline-2-carboxylic Acid] as the molecule, how does the melting point read?
**A.** The melting point was 300 °C (dec.).

**Q.** For `O=C(NCc1cn(-c2cc3nc(C(=O)O)c(=O)[nH]c3cc2C(F)(F)F)cn1)Nc1ccc(C(=O)O)cc1` (as salt: salt) [Example 207, 7-(4-(((4-Carboxyphenyl)aminocarbonylamino)methyl)imidazole-1-yl)-3,4-dihydro-3-oxo-6-trifluoromethylquinoxaline-2-carboxylic Acid], which melting point is on record?
**A.** The melting point was 255 °C (dec.).

**Q.** Which melting point does the source give for `O=C(O)c1nc2cc(N3CCN(c4ccc(F)cc4)CC3)c([N+](=O)[O-])cc2[nH]c1=O` [Example 54, 3,4-Dihydro-7-(4-(4-fluorophenyl)piperazine-1-yl)-6-nitro-3-oxoquinoxaline-2-carboxylic Acid] here?
**A.** The melting point was 235.5 to 237.5 °C.

**Q.** With `COc1ccccc1N1CCN(c2cc3nc(C(=O)O)c(=O)[nH]c3cc2[N+](=O)[O-])CC1` [Example 59, 3,4-Dihydro-7-(4-(2-methoxyphenyl)piperazine-1-yl)-6-nitro-3-oxoquinoxaline-2-carboxylic Acid] as the molecule, how does the melting point read?
**A.** Its melting point is 204 to 206 °C.

**Q.** For `O=C(O)c1nc2cc(N3CCN(Cc4ccccc4)CC3)c([N+](=O)[O-])cc2[nH]c1=O` [Example 60, 7-(4-Benzylpiperazine-1-yl)-3,4-dihydro-6-nitro-3-oxoquinoxaline-2-carboxylic Acid], which melting point is on record?
**A.** The melting point was 278 to 280 °C.

**Q.** With `O=C(O)c1nc2cc(N3CCC(O)CC3)c([N+](=O)[O-])cc2[nH]c1=O` [Example 61, 3,4-Dihydro-7-(4-hydroxypiperidine-1-yl)-6-nitro-3-oxoqinoxaline-2-carboxylic Acid] as the molecule, how does the melting point read?
**A.** Its melting point is 253 to 255 °C.

**Q.** With `CN(C)Cc1cc2nc(C(=O)O)c(=O)[nH]c2cc1[N+](=O)[O-]` [Example 67, 3,4-Dihydro-7-dimethylaminomethyl-6-nitro-3-oxoquinoxaline-2-carboxylic Acid] as the molecule, how does the melting point read?
**A.** The melting point was greater than 300 °C.

**Q.** For `NC(=O)c1nc2cc(F)c([N+](=O)[O-])cc2[nH]c1=O` [Example 69, 3,4-Dihydro-7-fluoro-6-nitro-3-oxoquinoxaline-2-carboxamide], which melting point is on record?
**A.** Its melting point is greater than 300 °C.

**Q.** With `NC(=O)c1nc2cc(-n3ccc(=O)cc3)c([N+](=O)[O-])cc2[nH]c1=O` [Example 70, 3,4-Dihydro-6-nitro-3-oxo-7-(4-pyridone-1-yl)quinoxaline-2-carboxamide] as the molecule, how does the melting point read?
**A.** Its melting point is greater than 300 °C.

**Q.** For `Nc1cc2[nH]c(=O)c(C(=O)O)nc2cc1F` [Example 72, 6-Amino-3,4-dihydro-7-fluoro-3-oxoquinoxaline-2-carboxylic Acid], which melting point is on record?
**A.** The melting point was greater than 300 °C.

**Q.** For `O=C(NCc1ccn(-c2cc3nc(C(=O)O)c(=O)[nH]c3cc2C(F)(F)F)c1)Nc1ccc(C(=O)O)cc1` [Example 79, 7-(3-(((4-Carboxyphenyl)aminocarbonylamino)-methyl)pyrrole-1-yl)-3,4-dihydro-3-oxo-6-trifluoromethylquinoxaline-2-carboxylic Acid], which melting point is on record?
**A.** The melting point was 234 to 236 °C (dec.).

**Q.** With `O=C(NCc1ccn(-c2cc3nc(C(=O)O)c(=O)[nH]c3cc2C(F)(F)F)c1)Nc1ccc(C(=O)O)cc1F` [Example 80, 7-(3-(((4-Carboxy-2-fluorophenyl)aminocarbonylamino)-methyl)pyrrole-1-yl)-3,4-dihydro-3-oxo-6-trifluoromethylquinoxaline-2-carboxylic Acid] as the molecule, how does the melting point read?
**A.** Its melting point is 249 to 251 °C (dec.).

**Q.** With `O=C(Nc1ccc(Br)cc1)OCc1cn(-c2cc3nc(C(=O)O)c(=O)[nH]c3cc2[N+](=O)[O-])cn1` [Example 86, 7-(4-((N-(4-Bromophenyl)carbamoyloxy)methyl)imidazolyl)-3,4-dihydro-6-nitro-3-oxoquinoxaline-2-carboxylic Acid] as the molecule, how does the melting point read?
**A.** Its melting point is 270 to 272 °C (dec.).

**Q.** For `COc1ccc(NC(=O)OCc2cn(-c3cc4nc(C(=O)[O-])c(=O)[nH]c4cc3[N+](=O)[O-])cn2)cc1.[Na+]` [Example 108], which melting point is on record?
**A.** Its melting point is 265 to 267 °C (dec.).

**Q.** With `O=C(Nc1cccc(C(=O)O)c1)OCc1cn(-c2cc3nc(C(=O)O)c(=O)[nH]c3cc2[N+](=O)[O-])cn1` [Example 116, 7-(4-((N-(3-Carboxyphenyl)carbamoyloxy)methyl)imidazolyl)-3,4-dihydro-6-nitro-3-oxoquinoxaline-2-carboxylic Acid] as the molecule, how does the melting point read?
**A.** Its melting point is 272 to 274 °C (dec.).

**Q.** For `O=C(NCc1cn(-c2cc3nc(C(=O)O)c(=O)[nH]c3cc2[N+](=O)[O-])cn1)Nc1ccccc1F` [Example 118, 3,4-Dihydro-7-(4-(((2-fluorophenyl)aminocarbonylamino)methyl)imidazolyl)-6-nitro-3-oxoquinoxaline-2-carboxylic Acid], which melting point is on record?
**A.** Its melting point is 300 °C.

**Q.** With `O=C(Nc1cccc(C(=O)O)c1)OCc1cn(-c2cc3nc(C(=O)O)c(=O)[nH]c3cc2[N+](=O)[O-])ccc1=O` [Example 125, 7-(3-((N-(3-Carboxyphenyl)carbamoyloxy)methyl)-4-pyridone-1-yl)-3,4-dihydro-6-nitro-3-oxoquinoxaline-2-carboxylic Acid] as the molecule, how does the melting point read?
**A.** Its melting point is 250 to 252 °C (dec.).

**Q.** Which melting point does the source give for `O=C(Nc1ccc(Br)cc1)Nc1cn(-c2cc3nc(C(=O)O)c(=O)[nH]c3cc2[N+](=O)[O-])ccc1=O` [Example 128, 7-(3-((4-Bromophenyl)aminocarbonylamino)-4-pyridone-1-yl)-3,4-dihydro-6-nitro-3-oxoquinoxaline-2-carboxylic Acid] here?
**A.** Its melting point is 252 to 254 °C (dec.).

**Q.** Which melting point does the source give for `O=C(Nc1ccccc1)Nc1cn(-c2cc3nc(C(=O)O)c(=O)[nH]c3cc2[N+](=O)[O-])ccc1=O` [Example 129, 3,4-Dihydro-6-nitro-3-oxo-7-(3-(phenylaminocarbonylamino)-4-pyridone-1-yl)quinoxaline-2-carboxylic Acid] here?
**A.** The melting point was 282 to 284 °C (dec.).

**Q.** With `O=C(Cc1ccc(Br)cc1)Nc1cn(-c2cc3nc(C(=O)O)c(=O)[nH]c3cc2[N+](=O)[O-])ccc1=O` [Example 136, 7-(3-((4-Bromobenzyl)carbonylamino)-4-pyridone-1-yl)-3,4-dihydro-6-nitro-3-oxoquinoxaline-2-carboxylic Acid] as the molecule, how does the melting point read?
**A.** The melting point was 240 to 242 °C (dec.).

**Q.** For `O=C(c1nc2cc(N3CCOCC3)c([N+](=O)[O-])cc2[nH]c1=O)N1CCOCC1` [Example 138, 3,4-Dihydro-7-morpholino-6-nitro-3-oxoquinoxaline-2-carboxylic Morpholineamide], which melting point is on record?
**A.** The melting point was 298 to 299 °C.

**Q.** For `Nc1cn(-c2cc3nc(C(=O)O)c(=O)[nH]c3cc2[N+](=O)[O-])ccc1=O` [Example 142, 7-(3-Amino-4-pyridone-1-yl)-3,4-dihydro-6-nitro-3-oxoquinoxaline-2-carboxylic Acid], which melting point is on record?
**A.** Its melting point is greater than 300 °C.

**Q.** For `Nc1cc2nc(C(=O)O)c(=O)[nH]c2cc1[N+](=O)[O-]` [Example 157, 7-Amino-3,4-dihydro-6-nitro-3-oxoquinoxaline-2-carboxylic Acid], which melting point is on record?
**A.** Its melting point is 300 °C.

**Q.** Which melting point does the source give for `Cn1c(=O)c(C(=O)O)nc2cc(F)c([N+](=O)[O-])cc21` [Example 162, 3,4-Dihydro-7-fluoro-4-methyl-6-nitro-3-oxoquinoxaline-2-carboxylic Acid] here?
**A.** Its melting point is 173 to 175 °C.

**Q.** With `O=C(O)c1nc2cc(C(F)(F)F)c([N+](=O)[O-])cc2[nH]c1=O` [Example 163, 3,4-Dihydro-6-nitro-3-oxo-7-trifluoromethylquinoxaline-2-carboxylic Acid] as the molecule, how does the melting point read?
**A.** The melting point was 213 to 215 °C (dec.).

**Q.** Which melting point does the source give for `Nc1cc2nc(C(=O)O)c(=O)[nH]c2cc1C(F)(F)F` [Example 164, 7-Amino-3,4-dihydro-3-oxo-6-trifluoromethylquinoxaline-2-carboxylic Acid] here?
**A.** The melting point was 218 to 220 °C (dec.).

**Q.** With `O=C(O)c1nc2cc(-n3ccnc3)c(C(F)(F)F)cc2[nH]c1=O` [Example 168, 3,4-Dihydro-7-imidazolyl-3-oxo-6-trifluoromethylquinoxaline-2-carboxylic Acid] as the molecule, how does the melting point read?
**A.** The melting point was 232 to 234 °C (dec.).

**Q.** Which melting point does the source give for `O=C(O)c1nc2cc(-n3ccc(=O)cc3)c(C(F)(F)F)cc2[nH]c1=O` [Example 169, 3,4-Dihydro-3-oxo-7-(4-pyridone-1-yl)-6-trifluoro-methylquinoxaline-2-carboxylic Acid] here?
**A.** Its melting point is 300 °C.

**Q.** With `O=C(NCc1ccn(-c2cc3nc(C(=O)O)c(=O)[nH]c3cc2C(F)(F)F)c1)Nc1ccc(Br)cc1` [Example 185, 7-(3-(((4-Bromophenyl)aminocarbonylamino)methyl)pyrrole-1-yl)-3,4-dihydro-3-oxo-6-trifluoromethylquinoxaline-2-carboxylic Acid] as the molecule, how does the melting point read?
**A.** The melting point was 196 to 198 °C (dec.).

**Q.** Which melting point does the source give for `O=C(NCc1ccn(-c2cc3nc(C(=O)O)c(=O)[nH]c3cc2C(F)(F)F)c1)Nc1cccc(C(=O)O)c1` [Example 187, 7-(3-(((3-Carboxyphenyl)aminocarbonylamino)methyl)pyrrole-1-yl)-3,4-dihydro-3-oxo-6-trifluoromethylquinoxaline-2-carboxylic Acid] here?
**A.** Its melting point is 300 °C.

**Q.** Which melting point does the source give for `O=C(NCc1ccn(-c2cc3nc(C(=O)O)c(=O)[nH]c3cc2C(F)(F)F)c1)Nc1ccccc1` [Example 188, 3,4-Dihydro-3-oxo-7-(3-((phenylaminocarbonylamino)methyl)pyrrole-1-yl)-6-trifluoromethylquinoxaline-2-carboxylic Acid] here?
**A.** Its melting point is greater than 300 °C.

**Q.** Which melting point does the source give for `O=C(Nc1ccccc1)OCc1cn(-c2cc3nc(C(=O)O)c(=O)[nH]c3cc2C(F)(F)F)cn1` [Example 235, 3,4-Dihydro-3-oxo-7-((4-(N-phenylcarbamoyloxy)methyl)imidazole-1-yl)-6-trifluoromethylquinoxaline-2-carboxylic Acid] here?
**A.** The melting point was 193 to 195 °C (dec.).

**Q.** For `CCOC(=O)c1ccc(NC(=O)OCc2cn(-c3cc4nc(C(=O)O)c(=O)[nH]c4cc3[N+](=O)[O-])cn2)cc1` [Example 278, 3,4-Dihydro-7-(4-((N-(4-ethoxycarbonylphenyl)carbamoyloxy)methyl)imidazolyl)-6-nitro-3-oxoquinoxaline-2-carboxylic Acid], which melting point is on record?
**A.** Its melting point is 207 to 209 °C (dec.).
